Like-named read-outs stand apart in the source and are kept apart here.
Legend:
Assay type in all cases: biochemical, Ratte
[1] = molecular target: NADH-Ubichinon-1-Reduktase (Rattus norvegicus, UniProt A6K8N6+P03889+Q641Y2); assay: NADH-ubiquinone-1 reductase (complex I) test, spectrophotometric at 340 nm
Succinat-Dehydrogenase = molecular target: T1, Succinat-Dehydrogenase (Rattus norvegicus, UniProt P21913+Q641Z9+Q6PCT8+Q920L2); assay: Succinate dehydrogenase (complex II) activity; settings: Rattenhirn-Homogenate
T1 construct: Hemmung des Komplexes I bzw; II der mitochondrialen Atmungskette in Rattenhirn-Homogenaten; from tissue; host or cells: rat brain homogenate

[2] = molecular target: NADH-Cytochrom-c-Reduktase (Rattus norvegicus, UniProt A6K8N6+P03889+Q641Y2); assay: NADH-cytochrome-c reductase test (complex I/III), spectrophotometric at 550 nm
Experimental: (§1) Die Isolierung von SMP's aus Rattenleber erfolgte nach (Ragan et al., 1987; Rickwood et al., 1987). • 8.1 Hemmung des Komplexes I der Atmungskette in SMP's durch N-Me-TaClo Komplex I (NADH-Dehydrogenase) der mitochondrialen Atmungskette katalysiert im ersten Schritt eine NADH-Oxidation. Die dabei freiwerdenden Elektronen werden in einem zweiten Schritt auf Coenzym Q bzw. Ubichinon übertragen. Ein typischer Testansatz (modifiziert nach Ragan et al., 1987) enthält dabei 20 mM K-Phosphat Puffer, pH 8.0, 0.2 mM NADH, 1 mM KCN, SMP (ca. 0.3 mg Protein/ml) und +/- 250 µM N-Me-TaClo (25 mM methanolische Stammlösung). Der Start der Reaktion erfolgt durch Zugabe von 50 µM Ubichinon-1. Die Messung der Reaktion erfolgt spektralphotometrisch bei einer Wellenlänge von 340 nm während der linearen Phase. Bei Zugabe von N-Me-TaClo erfolgt eine 100proz. Hemmung der Ubichinon-Reduktion (s.a. Tabelle 1). • 8.2 Hemmung der elektronenübertragenden Reaktionen auf Coenzym Q: NADH-Cytochrom-c-Reduktase und Succinat-Cytochrom-c-Reduktase Coenzym Q wird sowohl durch freiwerdende Elektronen bei der Komplex-I-katalysierten NADH-Oxidation, als auch bei der Komplex-II (Succinat-Coenzym-Q-Reduktase) -katalysierten Reaktion reduziert. Messungen dieser Reaktionswege mit anschließendem Elektronenfluß über den Komplex III bis zur Cytochrom-c-Reduktion lassen sich mittels folgender Tests untersuchen und durch die hier vorgestellten halogenierten β-Carbolinderivate (im folgenden am Beispiel von N-Me-TaClo) hemmen: • NADH-Cytochrom-c-Reduktase-Test (modifiziert nach Sottocasa et al., 1967) Ein typischer Testansatz enthält 25 mM K-Phosphat-Puffer, pH 7.5, 0.2 mM NADH, 0.1 mM Cytochrom-c, 0.5 mM KCN und +/- 250 µM N-Me-TaClo (25 mM methanolische Stammlösung). Die Messung der Reaktion erfolgt spektralphotometrisch bei einer Wellenlänge von 550 nm während der linearen Phase. Bei Zugabe von N-Me-Taclo erfolgt eine 100proz. Hemmung der Reaktion (s.a. Tabelle 1). • - Succinat-Cytochrom-c-Reduktase-Test (modifiziert nach Sottocasa et al., 1967) Ein typischer Testansatz enthält 55 mM K-Phosphat-Puffer, pH 7.5, 3 mM Na-Succinat, 0.1 mM Cytochrom c, +/- 250 µM N-Me-TaClo (25 mM methanolische Stammlösung) und 0.5 mM KCN. Gestartet wird die Reaktion mit SMP (ca. 0.3 mg Protein/ml). Die Messung der Reaktion erfolgt spektralphotometrisch bei einer Wellenlänge von 550 nm während der linearen Phase. Bei Zugabe von N-Me-TaClo erfolgt eine 100proz. Hemmung der Reaktion (s. auch Tabelle 1). • - Einsatz der halogenierten β-Carboline als Hemmstoffe der NADH- bzw. Succinat-gekoppelten Oxidation; Polarographische Messungen der Enzymaktivitäten an SMP's ("submitochondrial particles") Bei der polarographischen Messung wird die Aktivität der Atmungskette in ihrer Gesamtheit ausgehend von der NADH-Oxidation (Komplex I) bzw. Succinat-Oxidation (Komplex II) bis zur O2-Reduktion (Komplex IV) bestimmt. Als Maß der Aktivität wird der O2-Verbrauch bestimmt. Der Test wird unter Verwendung einer Clark-Sauerstoffelektrode (Rank Brothers, England) bei 30°C in 2 ml Puffer (50 mM K-Phosphat, pH 7.4, 250 mM Saccharose) und 0.15 mg SMP-Protein/ml durchgeführt. Nach 5 minütiger Vorinkubation ± Inhibitor wird die Messung mit NADH (Endkonzentration 0.28 mM) bzw. Succinat (Endkonzentration 20 mM) gestartet. Bei der Succinat-gekoppelten Oxidation werden die SMP's vorher nach Krueger et al., (1993) mit Malonat aktiviert.

NADH-Oxidase = NADH-Oxidase (Rattus norvegicus, UniProt A6K8N6+P03889+Q641Y2); assay: NADH oxidase activity of complex I of the mitochondrial respiratory chain
[3] = system: Succinat-Cytochrom-c-Reduktase; assay: Succinate-cytochrome-c reductase test (complex II/III), spectrophotometric at 550 nm
Experimental: as §1, with “Succinat-Oxidation (Komplex II) bis zur O2-Reduktion (Komplex IV) bestimmt. Als Maß der Aktivität wird der O2-Verbrauch bestimmt. Der Test wird unter Verwendung einer Clark-Sauerstoffelektrode (Rank Brothers, England) bei 30°C in 2 ml Puffer (50 mM K-Phosphat, pH 7.4, 250 mM Saccharose) und 0.15 mg SMP-Protein/ml durchgeführt. Nach 5 minütiger Vorinkubation ± Inhibitor wird die Messung mit NADH (Endkonzentration 0.28 mM) bzw. Succinat (Endkonzentration 20 mM) gestartet. Bei der Succinat-gekoppelten Oxidation werden die SMP's vorher nach Krueger et al., (1993) mit Malonat aktiviert.” left out

Cytochrom c Oxidase = Cytochrom c Oxidase (Rattus norvegicus, UniProt P00406+P05503); assay: Cytochrome c oxidase (complex IV) activity; settings: 500 µM TaClo, Rattenhirn-Homogenate
[4] = bei 500 µmol, Rattenhirn-Homogenate, read-out: Komplex-I-Hemmung Inhibierungsrate (in %) bei gegebener Konzentration (in µmol)
[5] = bei 500 µmol, read-out: Komplex-II-Hemmung Inhibierungsrate (in %) bei gegebener Konzentration (in µmol)
[6] = bei 250 µmol, read-out: Komplex-II-Hemmung Inhibierungsrate (in %) bei gegebener Konzentration (in µmol)
[7] = read-out: Inhibierungsrate durch TaClo

T1 sequence (Q920L2 35-656): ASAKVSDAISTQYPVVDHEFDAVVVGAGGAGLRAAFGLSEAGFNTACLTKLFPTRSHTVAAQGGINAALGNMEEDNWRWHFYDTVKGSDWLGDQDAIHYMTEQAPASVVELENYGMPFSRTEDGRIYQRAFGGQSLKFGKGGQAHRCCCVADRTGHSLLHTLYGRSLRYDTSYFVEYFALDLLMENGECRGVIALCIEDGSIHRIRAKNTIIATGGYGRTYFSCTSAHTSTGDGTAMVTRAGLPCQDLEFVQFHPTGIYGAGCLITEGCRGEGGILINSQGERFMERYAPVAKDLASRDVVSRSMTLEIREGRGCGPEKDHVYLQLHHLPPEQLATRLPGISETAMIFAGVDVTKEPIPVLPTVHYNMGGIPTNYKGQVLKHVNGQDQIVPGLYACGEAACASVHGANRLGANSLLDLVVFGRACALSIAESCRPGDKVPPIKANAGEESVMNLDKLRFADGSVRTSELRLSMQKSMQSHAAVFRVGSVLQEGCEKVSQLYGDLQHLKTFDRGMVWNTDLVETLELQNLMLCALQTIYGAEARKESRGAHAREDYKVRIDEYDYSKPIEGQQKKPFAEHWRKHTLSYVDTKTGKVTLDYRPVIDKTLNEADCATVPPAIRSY
T1 sequence (P21913 31-282): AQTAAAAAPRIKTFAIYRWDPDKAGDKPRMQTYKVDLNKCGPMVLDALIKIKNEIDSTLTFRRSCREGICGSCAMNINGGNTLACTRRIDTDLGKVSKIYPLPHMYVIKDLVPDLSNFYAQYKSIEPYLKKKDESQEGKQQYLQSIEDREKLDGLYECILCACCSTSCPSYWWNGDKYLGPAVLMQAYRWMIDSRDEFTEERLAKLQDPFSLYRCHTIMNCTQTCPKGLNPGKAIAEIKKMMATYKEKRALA
T1 sequence (Q641Z9 1-169): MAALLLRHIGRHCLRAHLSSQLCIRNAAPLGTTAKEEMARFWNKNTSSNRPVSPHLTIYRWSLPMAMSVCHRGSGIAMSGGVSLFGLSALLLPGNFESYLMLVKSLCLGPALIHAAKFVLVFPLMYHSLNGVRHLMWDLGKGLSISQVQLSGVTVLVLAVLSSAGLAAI
T1 sequence (Q6PCT8 57-159): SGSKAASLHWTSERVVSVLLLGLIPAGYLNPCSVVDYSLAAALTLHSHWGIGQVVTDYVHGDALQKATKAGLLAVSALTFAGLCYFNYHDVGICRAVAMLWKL
Chain of NADH-Cytochrom-c-Reduktase (Q641Y2 34-463): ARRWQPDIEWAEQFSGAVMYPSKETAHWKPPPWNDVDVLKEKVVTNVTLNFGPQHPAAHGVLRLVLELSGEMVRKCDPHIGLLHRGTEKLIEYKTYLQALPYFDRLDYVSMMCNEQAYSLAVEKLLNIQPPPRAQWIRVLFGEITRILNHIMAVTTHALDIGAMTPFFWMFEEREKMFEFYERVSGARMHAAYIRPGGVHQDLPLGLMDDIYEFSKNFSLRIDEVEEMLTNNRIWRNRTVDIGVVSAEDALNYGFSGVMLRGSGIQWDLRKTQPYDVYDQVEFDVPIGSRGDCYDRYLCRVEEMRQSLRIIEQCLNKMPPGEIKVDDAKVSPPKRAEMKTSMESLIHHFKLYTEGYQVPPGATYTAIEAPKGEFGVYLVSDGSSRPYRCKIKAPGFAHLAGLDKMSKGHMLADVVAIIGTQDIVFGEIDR
Chain of NADH-Cytochrom-c-Reduktase (P03889 whole entry): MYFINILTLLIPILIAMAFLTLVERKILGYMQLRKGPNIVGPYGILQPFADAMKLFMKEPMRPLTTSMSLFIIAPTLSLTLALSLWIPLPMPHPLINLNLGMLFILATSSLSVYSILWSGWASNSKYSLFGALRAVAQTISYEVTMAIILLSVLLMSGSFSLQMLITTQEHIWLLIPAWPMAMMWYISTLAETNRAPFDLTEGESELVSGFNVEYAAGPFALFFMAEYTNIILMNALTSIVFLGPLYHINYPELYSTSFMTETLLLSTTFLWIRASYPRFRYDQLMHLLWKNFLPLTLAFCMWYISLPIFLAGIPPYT
Chain of NADH-Cytochrom-c-Reduktase (A6K8N6 entry or part of it): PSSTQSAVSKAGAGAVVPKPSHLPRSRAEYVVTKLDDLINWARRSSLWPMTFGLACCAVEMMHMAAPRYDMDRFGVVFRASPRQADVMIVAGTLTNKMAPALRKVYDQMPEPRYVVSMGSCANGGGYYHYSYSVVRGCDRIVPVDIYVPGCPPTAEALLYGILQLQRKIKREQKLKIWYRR
Chain of NADH-Ubichinon-1-Reduktase (P03889 whole entry): as the sequence (P03889 whole entry) above
Chain of NADH-Ubichinon-1-Reduktase (Q641Y2 34-463): as the sequence (Q641Y2 34-463) above
Chain of NADH-Ubichinon-1-Reduktase (A6K8N6 entry or part of it): as the sequence (A6K8N6 entry or part of it) above

In the case of `CC(=O)N1CCc2c([nH]c3ccccc23)C1C(Cl)(Cl)Cl` (racemic) [N-Acetyl-TaClo], the inhibition at 500 µM [1, 4] was 20%.

In the case of `C=CCN1CCc2c([nH]c3ccccc23)C1C(Cl)(Cl)Cl` (racemic) [N-Allyl-TaClo], the inhibition at 500 µM (Succinat-Dehydrogenase; [5]) was no less than 100%.

`ClC(Cl)(Cl)C1c2[nH]c3ccccc3c2CCN1Cc1ccccc1` (racemic) [N-Bzl-TaClo] showed an inhibition at 250 µM (Succinat-Dehydrogenase; [6]) of 55%.

In the case of `CCN1CCc2c([nH]c3ccccc23)C1C(Cl)(Cl)Cl` (racemic) [N-Ethyl-TaClo], the inhibition at 500 µM (Succinat-Dehydrogenase; [5]) was 75%.

For `O=CN1CCc2c([nH]c3ccccc23)C1C(Br)(Br)Br` (racemic) [N-Formyl-TaBro], the inhibition at 500 µM [1, 4] was 83%.

Compound `CN1CCc2c([nH]c3ccccc23)C1C(Cl)(Cl)Cl` (racemic) [N-Me-TaClo] has an inhibition at 250 µM (Succinat-Dehydrogenase; Succinat-Dehydrogenase, 250 µM, read-out: Inhibierung bei 250 µM N-Me-TaClo) of 100%, an inhibition at 250 µM (Succinat-Dehydrogenase; [6]) of no less than 100% and an inhibition at 250 µM ([2]; 250 µM N-Me-TaClo, SMP's aus Rattenleber, read-out: Hemmung der Reaktion (NADH-Cytochrom-c-Reduktase-Test)) of 100%. The inhibition at 250 µM ([2]; NADH-Cytochrom-c-Reduktase, 250 µM, Rattenhirn-Homogenate, read-out: Inhibierung bei 250 µM N-Me-TaClo) was 70%, the inhibition at 250 µM (NADH-Oxidase; NADH-Oxidase, 250 µM, Rattenhirn-Homogenate, read-out: Inhibierung bei 250 µM N-Me-TaClo) was 0% and the inhibition at 250 µM ([1]; 250 µM N-Me-TaClo, SMP's aus Rattenleber, read-out: Hemmung der Ubichinon-Reduktion) was 100%. The inhibition at 250 µM ([1]; NADH-Ubichinon-1-Reduktase, 250 µM, Rattenhirn-Homogenate, read-out: Inhibierung bei 250 µM N-Me-TaClo) was 100%, the “Hemmung der Reaktion (Succinat-Cytochrom-c-Reduktase-Test)” value ([3]; 250 µM N-Me-TaClo, SMP's aus Rattenleber) was 100 proz and the “Inhibierung bei 250 µM N-Me-TaClo” value ([3]; Succinat-Cytochrom-c-Reduktase, 250 µM, Rattenhirn-Homogenate) was 80%.

Compound `O=C(CCl)N1CCc2c([nH]c3ccccc23)C1C(Cl)(Cl)Cl` (racemic) [N-Monochloracetyl-TaClo] has an inhibition at 500 µM [1, 4] of 95%.

With `O=C(N1CCc2c([nH]c3ccccc23)C1C(Cl)(Cl)Cl)C(Cl)(Cl)Cl` (racemic) [N-Trichloracetyl-TaClo] the inhibition at 500 µM [1, 4] was 90%.

With `ClC(Cl)(Cl)C1NCCc2c1[nH]c1ccccc21` (racemic) [TaClo, 1-Trichlormethyl-1,2,3,4-tetrahydro-β-carbolin] the “Enzymaktivität (nmol/min/mg Protein)” value (Succinat-Dehydrogenase; Succinat Dehydrogenase, 500 µM TaClo, Kontrolle 29.6) was 30.1 nmol/min/mg Protein, the inhibition at 500 µM (Succinat-Dehydrogenase; Succinat Dehydrogenase, 500 µM TaClo, read-out: Inhibierungsrate durch TaClo) was 0% and the inhibition at 500 µM (Succinat-Dehydrogenase; [5]) was 30%. For the same compound, the “Enzymaktivität (nmol/min/mg Protein)” value ([2]; NADH Cyt c Reduktase, 500 µM TaClo, Rattenhirn-Homogenate, Kontrolle 24.6) was 14.7 nmol/min/mg Protein, the inhibition at 500 µM [2, 7] was 40% and the “Enzymaktivität (nmol/min/mg Protein)” value (NADH-Oxidase; NADH-Oxidase, 500 µM TaClo, Rattenhirn-Homogenate, Kontrolle 141.0) was 138.0 nmol/min/mg Protein. For the same compound, the inhibition at 500 µM (NADH-Oxidase; [7]) was 0%, the “Einfluß auf die NADH-Oxidation” value (NADH-Oxidase; result in words, s. Tabelle 2) was “beeinflußt jedoch nicht die NADH-Oxidation” and the “Enzymaktivität (nmol/min/mg Protein)” value ([1]; NADH CoQ1 Reduktase, 500 µM TaClo, Rattenhirn-Homogenate, Kontrolle 10.9) was 1.6 nmol/min/mg Protein. The inhibition at 500 µM [1, 7] was 85%, the “Inhibierungsrate durch TaClo” value ([3]; Succinat Cyt c Reduktase, 500 µM TaClo, Rattenhirn-Homogenate) was 22% and the “Enzymaktivität (nmol/min/mg Protein)” value ([3]; Succinat Cyt c Reduktase, 500 µM TaClo, Rattenhirn-Homogenate, Kontrolle 11.9) was 9.2 nmol/min/mg Protein. The “Enzymaktivität (nmol/min/mg Protein)” value (Cytochrom c Oxidase; Kontrolle 45.8) was 38.9 nmol/min/mg Protein and the inhibition at 500 µM (Cytochrom c Oxidase; [7]) was 20%.

With `COC(=O)[C@@H]1Cc2c([nH]c3ccccc23)C(C(Cl)(Cl)Cl)N1` (stereo partly shown) [3-COOMe-TaClo] the inhibition at 500 µM (Succinat-Dehydrogenase; [5]) was 75%.

`FC(F)(F)C1=NCCc2c1[nH]c1ccccc21` [DDH-TaFlu, 1-Trifluormethyl-3,4-didehydro-β-carbolin] was tested, and the inhibition at 250 µM (Succinat-Dehydrogenase; [6]) was 20%.

`ClC(Cl)=C1NCCc2c1[nH]c1ccccc21` [Dichlormethylen-TaClo] gave an inhibition at 250 µM (Succinat-Dehydrogenase; [6]) of 40%.

In the case of `COC(=O)C1Cc2c([nH]c3ccccc23)C(C(Cl)(Cl)Cl)N1Cc1ccccc1` (stereo not shown) [N-Bzl-3-COOMe-TaClo], the inhibition at 500 µM (Succinat-Dehydrogenase; [5]) was 60%.

For `O=CN1CCc2c([nH]c3ccccc23)C1=C(Br)Br` [N-Formyl-dibrommethylen-TaBro], the inhibition at 500 µM [1, 4] was no less than 100%.

With `C=C(C)[C@H]1Cc2c(ccc3c2O[C@@H]2COc4cc(OC)c(OC)cc4[C@@H]2C3=O)O1` [Rotenon, reference compound] the “Enzymaktivität (nmol/min/mg Protein)” value [2] was 5.7 nmol/min/mg Protein and the “Enzymaktivität (nmol/min/mg Protein)” value [1] was 4.2 nmol/min/mg Protein.
